From US8012935B2, “Synthetic peptides and methods for treating cancer invasion and metastasis” (priority 2002, dated 2011)

How the values were obtained:
[1] = test system: human melanoma cells A2058; assay: MATRIGEL invasion and migration by melanoma cells A2058; format: cell-based
Description: The inhibitory effects of these oligopeptides on the MATRIGEL™ invasion and migration through the MATRIGEL™ membrane by various cancer cells were evaluated using “Improved MATRIGEL™ Invasion Chamber” (Becton Dickinson, USA).
(§1) The studies were conducted using “Improved MATRIGEL™ Invasion Chambers” (Becton Dickinson, USA).
(§2) In studies with human melanoma cells, human fibroblasts-NHDF (Clonetics) were seeded on MATRIGEL™ inserts and allowed to reach confluence. This was done to closely simulate in vivo conditions surrounding cancer cells in the body. Human melanoma cells A2058 were then seeded on the insert. Conditioned media from the fibroblast culture supplemented with various levels of chosen oligopeptide were added to the chamber. The system was incubated for about 24 hours. At the end of the period the cells on the upper surface of the insert were wiped off. The cells that had invaded the MATRIGEL™ membrane and had migrated to the lower surface of the insert were stained with “quick stain” and were counted under the microscope. […] The inhibitory activity of the control was considered as “0”. The media from invasion assays were saved for zymogram studies.

[2] = test system: human breast cancer cells MCF7; assay: MATRIGEL invasion and migration by breast cancer cells MCF7; format: cell-based; settings: for inhibition of MATRIGEL invasion: MCF7
Description: as §1, §2
(§3) In studies with human breast cancer cells MCF7 the procedure was essentially similar to that used for melanoma cells, except that MRC5 (ATCC) fibroblasts were used in place of NHDF.

[3] = test system: human breast cancer cells MDA-MB 231; assay: MATRIGEL invasion by breast cancer cells MDA-MB 231; format: cell-based; settings: 150 μM
Description: as §1, §2, §3
In studies with human breast cancer cells MDA-MB 231 the fibroblast-MRC5 cells were plated in the wells. The rest of the procedure remained the same as in studies with MCF7 cells.

[4] = test system: MMP-2 secreted by the cancer cells; assay: Zymogram studies of media from invasion assays; format: cell-based, human; settings: zymogram gels
Description: as §2
The media (25-30 μl) from various wells in invasion studies were applied to NOVEX® zymogram gels (Invitrogen). The gels were developed and stained as recommended by the manufacturer. The matrix metalloproteinases (MMPs) were identified on the basis of their known molecular weights.

[5] = comparison of oligopeptides (FIG. 2), concentration not given, about 24 hours

For “PRKPKWDK (listed as Homo sapiens) [synthetic oligopeptide corresponding to amino acids 85 to 92 of MMP-2]”, the “inhibition of MATRIGEL invasion” value ([1]; 50 μM (FIG. 3)) was “about 37%”, the “inhibition of MATRIGEL invasion” value ([1]; 100 μM concentration) was 63% and the “inhibition of MATRIGEL invasion” value ([1]; 150 μM (FIG. 3)) was 73%. The “inhibition of MATRIGEL invasion” value [1, 5] was 73%, the “inhibition of MATRIGEL invasion” value ([2]; 150 μM (FIG. 4)) was “about 70%” and the “inhibition of MATRIGEL invasion” value ([2]; 200 μM (FIG. 4)) was “about 90%”. For the same sequence, the “inhibition of the invasion of cancer cells” value ([2]; summary statement, cell line and concentration not stated) was “about 90%”, the “inhibition of MATRIGEL invasion” value [3] was “about 94%” and the “inhibitory effect on the amount of MMP-2 secreted” value [4] was “did not show any inhibitory effect”.
LPPDVQRVD (listed as Homo sapiens) was tested, and the “inhibition of MATRIGEL invasion” value [1, 5] was “about 20%”.
“TMRKPRCGNPDVAN (listed as Homo sapiens) [reference compound]” was tested, and the “inhibition of MATRIGEL invasion” value [1, 5] was “about 11%”.
In the case of GDVAPKTDKE (listed as Homo sapiens), the “inhibition of MATRIGEL invasion” value ([1]; 100 μM concentration) is reported as “did not show any activity”.
